This is an account of results in US7834030B2, “Phenyl-[1,2,4]-oxadiazol-5-one derivatives, pharmaceutical compositions and therapeutic use thereof” (Sanofi-Aventis, priority 2005, dated 2010).

This test deals with T1, human PPARdelta (Homo sapiens, UniProt Q03181).
T1 construct: human PPARdelta receptor (amino acids S139-Y441); expressed in transfected cells; plasmid pcDNA3
T1 sequence (Q03181 139-441): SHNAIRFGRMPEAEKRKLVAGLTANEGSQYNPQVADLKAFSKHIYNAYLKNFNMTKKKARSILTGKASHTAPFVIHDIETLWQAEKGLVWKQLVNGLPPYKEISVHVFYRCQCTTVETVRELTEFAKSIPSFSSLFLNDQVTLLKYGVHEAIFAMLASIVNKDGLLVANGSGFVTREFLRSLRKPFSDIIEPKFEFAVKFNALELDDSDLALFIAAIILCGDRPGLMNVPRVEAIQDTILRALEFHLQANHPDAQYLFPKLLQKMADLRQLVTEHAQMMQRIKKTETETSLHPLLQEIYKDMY
Put plainly: cellular PPARdelta assay (GAL4 luciferase reporter, stably transfected HEK cell line). The class given is cell-based. The method, then: The PPARalpha reporter cell line is cultivated to 80% confluence in DMEM (# 41965-039, Invitrogen) which is mixed with the following additions: 10% cs-FCS (fetal calf serum; #SH-30068.03, Hyclone), 0.5 mg/ml zeocin (#R250-01, Invitrogen), 0.5 mg/ml G418 (#10136-027, Invitrogen), 1% penicillin-streptomycin solution (#15140-122, Invitrogen) and 2 mM L-glutamine (#25030-024, Invitrogen). The cultivation takes place in standard cell culture bottles (# 353612, Becton Dickinson) in a cell culture incubator at 37° C. in the presence of 5% CO2. The 80%-confluent cells are washed once with 15 ml of PBS (#14190-094, Invitrogen), treated with 3 ml of trypsin solution (#25300-054, Invitrogen) at 37° C. for 2 min, taken up in 5 ml of the DMEM described and counted in a cell counter. After dilution to 500.000 cells/ml, 35,000 cells are seeded in each well of a 96 well microtiter plate with a clear plastic base (#3610, Corning Costar). The plates are incubated in the cell culture incubator at 37° C. and 5% CO2 for 24 h.
PPARalpha agonists to be tested are dissolved in DMSO in a concentration of 10 mM. This stock solution is diluted in DMEM (#41965-039, Invitrogen) which is mixed with 5% cs-FCS (#SH-30068.03, Hyclone), 2 mM L-glutamine (#25030-024, Invitrogen) and the previously described antibiotics (zeocin, G418, penicillin and streptomycin). Test substances are tested in 11 different concentrations in the range from 10 μM to 100 pM.
The medium of the PPARalpha reporter cell line seeded on day 1 is completely removed by aspiration, and the test substances diluted in medium are immediately added to the cells. The dilution and addition of the substances is carried out by a robot (Beckman FX). The final volume of the test substances diluted in medium is 100 μl per well of a 96 well microtiter plate. The DMSO concentration in the assay is less than 0.1% v/v in order to avoid cytotoxic effects of the solvent.
The PPARalpha reporter cells treated with the test substances are removed from the incubator, and the medium is aspirated off. The cells are lyzed by pipetting 50 μl of Bright Glo reagent (from Promega) into each well of a 96 well microtiter plate. After incubation at room temperature in the dark for 10 minutes, the microtiter plates are measured in the luminometer (Trilux from Wallac). The measuring time for each well of a microtiter plate is 1 sec.
The raw data from the luminometer are transferred into a Microsoft Excel file. Dose-effect plots and EC50 values of PPAR agonists are calculated using the XL.Fit program as specified by the manufacturer (IDBS). […] The compounds of the present invention of formula I activate the PPARalpha receptor.
The potency of substances which bind to human PPARdelta and activate it in an agonistic manner was analyzed using a stably transfected HEK cell line (HEK=human embryo kidney) which is referred to here as PPARdelta reporter cell line. In analogy to the assay described for PPARalpha, the PPARdelta reporter cell line also contains two genetic elements, a luciferase reporter element (pdeltaM-GAL4-Luc-Zeo) and a PPARdelta fusion protein (GR-GAL4-humanPPARdelta-LBD) which mediates expression of the luciferase reporter element depending on a PPARdelta ligand. The stably and constitutively expressed fusion protein GR-GAL4-humanPPARdelta-LBD binds in the cell nucleus of the PPARdelta reporter cell line via the GAL4 protein portion to the GAL4 DNA binding motifs 5′-upstream of the luciferase reporter element which is stably integrated in the genome of the cell line. There is only little expression of the luciferase reporter gene in the absence of a PPARdelta ligand if fatty acid-depleted fetal calf serum (cs-FCS) is used in the assay. PPARdelta ligands bind and activate the PPARdelta fusion protein and thereby stimulate expression of the luciferase reporter gene. The luciferase which is formed can be detected by means of chemiluminescence via an appropriate substrate. […]

Structures are written as SMILES.

One may read the EC50 as the concentration that produces a half-maximal response. A high value points to weaker potency. For the compound `CCC(Oc1ccc(-c2noc(=O)[nH]2)c(Cl)c1)c1sc(-c2ccc(C(F)(F)F)cc2)nc1C` (racemic) [Example 4, 3-(2-Chloro-4-{1-[4-methyl-2-(4-trifluoromethyl-phenyl)-thiazol-5-yl]-propoxy}-phenyl)-4H-[1,2,4]oxadiazol-5-one], the EC50 came to 0.2 nM.

`Cc1nc(-c2ccc(C(F)(F)F)cc2)sc1C(Cc1ccccn1)Oc1ccc(-c2noc(=O)[nH]2)c(Cl)c1` (racemic) [Example 10, 3-(2-Chloro-4-{1-[4-methyl-2-(4-trifluoromethyl-phenyl)-thiazol-5-yl]-2-pyridin-2-yl-ethoxy}-phenyl)-4H-[1,2,4]oxadiazol-5-one] displayed an EC50 of 6 nM.

`CCC(Oc1ccc(-c2noc(=O)[nH]2)c(C2CC2)c1)c1sc(-c2ccc(C(F)(F)F)cc2)nc1C` (racemic) [Example 16, 3-(2-Cyclopropyl-4-{1-[4-methyl-2-(4-trifluoromethyl-Phenyl)-thiazol-5-yl]-propoxy}-phenyl)-4H-[1,2,4]oxadiazol-5-one] yielded an EC50 of 1 nM.

For the compound `Cc1nc(-c2ccc(C(F)(F)F)cc2)sc1C(Oc1ccc(-c2noc(=O)[nH]2)c(Cl)c1)C(F)(F)F` (racemic) [Example 20, 3-(2-Chloro-4-{2,2,2-trifluoro-1-[4-methyl-2-(4-trifluoromethyl-phenyl)-thiazol-5-yl]-ethoxy}-phenyl)-4H-[1,2,4]oxadiazol-5-one], it took 1 nM to reach a half-maximal effect (EC50). This counts as single-digit nanomolar.

Turning to `Cc1nc(-c2ccc(C(F)(F)F)cc2)sc1C(OCc1ccc(-c2noc(=O)[nH]2)c(F)c1)C(F)(F)F` (racemic) [Example 22, 3-(2-Fluoro-4-{2,2,2-trifluoro-1-[4-methyl-2-(4-trifluoromethyl-phenyl)-thiazol-5-yl]-ethoxymethyl}-phenyl)-4H-[1,2,4]oxadiazol-5-one], a half-maximal response (EC50) required 17 nM.

The compound `Cc1nc(-c2ccc(C(F)(F)F)cc2)sc1C(OCc1ccc(-c2noc(=O)[nH]2)c2cccnc12)C(F)(F)F` (racemic) [Example 25, 3-(8-{2,2,2-Trifluoro-1-[4-methyl-2-(4-trifluoromethyl-phenyl)-thiazol-5-yl]-ethoxymethyl}-quinolin-5-yl)-4H-[1,2,4]oxadiazol-5-one] registered a half-maximal effective concentration (EC50) of 3 nM.

The compound `Cc1nc(-c2ccc(C(F)(F)F)cc2)sc1C(OCc1ccc(-c2noc(=O)[nH]2)c(Cl)n1)C(F)(F)F` (racemic) [Example 27, 3-(2-Chloro-6-{2,2,2-trifluoro-1-[4-methyl-2-(4-trifluoromethyl-phenyl)-thiazol-5-yl]-ethoxymethyl}-pyridin-3-yl)-4H-[1,2,4]oxadiazol-5-one] showed a half-maximal effective concentration (EC50) of 17 nM.

`Cc1nc(-c2ccc(C(F)(F)F)cc2)sc1C(OCc1ccc(-c2noc(=O)[nH]2)cc1)C(F)(F)C1CC1` (racemic) [Example 32, 3-(4-{2-Cyclopropyl-2,2-difluoro-1-[4-methyl-2-(4-trifluoromethyl-phenyl)-thiazol-5-yl]-ethoxymethyl}-phenyl)-4H-[1,2,4]oxadiazol-5-one]: the response was half-maximal at 127 nM (EC50).

`CCCCC(Cc1ccc(-c2noc(=O)[nH]2)c(F)c1)c1sc(-c2ccc(C(F)(F)F)cc2)nc1C` (racemic) [Example 34, 3-(2-Fluoro-4-{2-[4-methyl-2-(4-trifluoromethyl-phenyl)-thiazol-5-yl]-hexyl}-phenyl)-4H-[1,2,4]oxadiazol-5-one] gave an EC50 of 1 nM.

Turning to `CCC(Oc1ccc(-c2noc(=O)[nH]2)c(F)c1)c1sc(-c2ccc(C(F)(F)F)cc2)nc1C` (racemic) [Example 35, 3-(2-Fluoro-4-{1-[4-methyl-2-(4-trifluoromethyl-phenyl)-thiazol-5-yl]-propoxy}-phenyl)-4H-1,2,4-oxadiazol-5-one], the EC50 amounted to 4 nM.

For the compound `CCC(Oc1ccc(-c2noc(=O)[nH]2)c(OC(F)F)c1)c1sc(-c2ccc(C(F)(F)F)cc2)nc1C` (racemic) [Example 37, 3-(2-Difluoromethoxy-4-{1-[4-methyl-2-(4-trifluoromethyl-phenyl)-thiazol-5-yl]-propoxy}-phenyl)-4H-1,2,4-oxadiazol-5-one], the EC50 stood at 0.5 nM.

`CCC(Oc1ccc(-c2noc(=O)[nH]2)c(OC)c1)c1sc(-c2ccc(C(F)(F)F)cc2)nc1CN1CCC(C(F)(F)F)CC1` (racemic) [Example 42, 3-(2-Methoxy-4-{1-[2-(4-trifluoromethyl-phenyl)-4-(4-trifluoromethyl-piperidin-1-ylmethyl)-thiazol-5-yl]-propoxy}-phenyl)-4H-1,2,4-oxadiazol-5-one] showed an EC50 of 8 nM.

In turn, `CCC(Oc1ccc(-c2noc(=O)[nH]2)c(OCC(F)(F)F)c1)c1sc(-c2ccc(C(F)(F)F)cc2)nc1C` (racemic) [Example 48, 3-[4-{1-[4-Methyl-2-(4-trifluoromethyl-phenyl)-thiazol-5-yl]-propoxy}-2-(2,2,2-trifluoro-ethoxy)-phenyl]-4H-1,2,4-oxadiazol-5-one] yielded an EC50 of 1 nM.

For `CC[C@@H](Oc1cc(OC)c(-c2noc(=O)[nH]2)cc1F)c1sc(-c2ccc(C(F)(F)F)cc2)nc1C` [(+)-40, (+)-3-(5-Fluoro-2-methoxy-4-{(R)-1-[4-methyl-2-(4-trifluoromethyl-phenyl)-thiazol-5-yl]-propoxy}-phenyl)-4H-1,2,4-oxadiazol-5-one], the EC50 turned out to be 1 nM.

Take `CC[C@@H](Oc1ccc(-c2noc(=O)[nH]2)c(OC(F)F)c1)c1sc(-c2ccc(C(F)(F)F)cc2)nc1CN1CCC(C(F)(F)F)CC1` [(+)-45, (+)-3-(2-Difluoromethoxy-4-{(R)-1-[2-(4-trifluoromethyl-phenyl)-4-(4-trifluoromethyl-piperidin-1-ylmethyl)-thiazol-5-yl]-propoxy}-phenyl)-4H-1,2,4-oxadiazol-5-one]: a half-maximal effect (EC50) was put at 0.3 nM.
